Assay results: PMC12090182, “Repurposing of the RIPK1-Selective Benzo[1,4]oxazepin-4-one Scaffold for the Development of a Type III LIMK1/2 Inhibitor” (ACS Chemical Biology, 2025)
Like-named read-outs stand apart in the source and are kept apart here.

Test system: U2OS cells
Type: cell-based
Conditions: U2OS
In short: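 HEK293T and U2OS cells (DMEM) and MRC-9 fibroblasts (EMEM) exposed to compounds at 1 and 10 μM. Live-cell confocal imaging of cell shape and fluorescence before and at 12, 24 and 48 h. Normalized to 0.1% DMSO; biological duplicates with SEM.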

[1] = 1 µM, 0 h after treatment, biological replicate 1
[2] = 1 µM, 0 h after treatment, biological replicate 2
[3] = 1 µM, 12 h after treatment, biological replicate 1
[4] = 1 µM, 12 h after treatment, biological replicate 2
[5] = 1 µM, 24 h after treatment, biological replicate 1
[6] = 1 µM, 24 h after treatment, biological replicate 2
[7] = 1 µM, 48 h after treatment, biological replicate 1
[8] = 1 µM, 48 h after treatment, biological replicate 2
[9] = 10 µM, 0 h after treatment, biological replicate 1
[10] = 10 µM, 0 h after treatment, biological replicate 2
[11] = 10 µM, 12 h after treatment, biological replicate 1
[12] = 10 µM, 12 h after treatment, biological replicate 2
[13] = 10 µM, 24 h after treatment, biological replicate 1
[14] = 10 µM, 24 h after treatment, biological replicate 2
[15] = 10 µM, 48 h after treatment, biological replicate 1
[16] = 10 µM, 48 h after treatment, biological replicate 2

CC(C)C(=O)Nc1ncc(C(=O)NCCN(Cc2ccccc2)C(=O)c2ccc(S(=O)(=O)Nc3ccccc3)cc2)s1 [TH470]
Cell count normalized to cells treated with DMSO control [1]: 0.966
Cell count per well [1]: 201
Population Fragmented Nuclei (%) [1]: 47.72%
Population Healthy Nuclei (%) [1]: 44.16%
Population Pyknosed Nuclei (%) [1]: 8.12%
Population apoptotic cell (%) [1]: 87.50%
Population cell that influence microtubule strucutre (%) [1]: 6.90%
Population with increased mitochondrial mass (%) [1]: 2.30%
Population with membrane disruption (%) [1]: 9.20%
Cell count normalized to cells treated with DMSO control [2]: 1.038
Cell count per well [2]: 89
Population Fragmented Nuclei (%) [2]: 15.73%
Population Healthy Nuclei (%) [2]: 79.78%
Population Pyknosed Nuclei (%) [2]: 4.49%
Population apoptotic cell (%) [2]: 50.00%
Population cell that influence microtubule strucutre (%) [2]: 5.63%
Population with increased mitochondrial mass (%) [2]: 4.23%
Population with membrane disruption (%) [2]: 4.23%
Cell count normalized to cells treated with DMSO control [3]: 0.8658
Cell count per well [3]: 229
Population Fragmented Nuclei (%) [3]: 36.24%
Population Healthy Nuclei (%) [3]: 55.96%
Population Pyknosed Nuclei (%) [3]: 7.80%
Population apoptotic cell (%) [3]: 76.47%
Population cell that influence microtubule strucutre (%) [3]: 1.64%
Population with increased mitochondrial mass (%) [3]: 4.10%
Population with membrane disruption (%) [3]: 4.10%
Cell count normalized to cells treated with DMSO control [4]: 1.074
Cell count per well [4]: 127
Population Fragmented Nuclei (%) [4]: 17.89%
Population Healthy Nuclei (%) [4]: 73.98%
Population Pyknosed Nuclei (%) [4]: 8.13%
Population apoptotic cell (%) [4]: 100.00%
Population cell that influence microtubule strucutre (%) [4]: 4.40%
Population with increased mitochondrial mass (%) [4]: 4.40%
Population with membrane disruption (%) [4]: 12.09%
Cell count normalized to cells treated with DMSO control [5]: 0.8405
Cell count per well [5]: 262
Population Fragmented Nuclei (%) [5]: 31.54%
Population Healthy Nuclei (%) [5]: 59.62%
Population Pyknosed Nuclei (%) [5]: 8.85%
Population apoptotic cell (%) [5]: 73.91%
Population cell that influence microtubule strucutre (%) [5]: 2.58%
Population with increased mitochondrial mass (%) [5]: 4.52%
Population with membrane disruption (%) [5]: 5.16%
Cell count normalized to cells treated with DMSO control [6]: 1.041
Cell count per well [6]: 148
Population Fragmented Nuclei (%) [6]: 19.59%
Population Healthy Nuclei (%) [6]: 67.57%
Population Pyknosed Nuclei (%) [6]: 12.84%
Population apoptotic cell (%) [6]: 94.74%
Population cell that influence microtubule strucutre (%) [6]: 3.00%
Population with increased mitochondrial mass (%) [6]: 4.00%
Population with membrane disruption (%) [6]: 4.00%
Cell count normalized to cells treated with DMSO control [7]: 0.7931
Cell count per well [7]: 353
Population Fragmented Nuclei (%) [7]: 26.16%
Population Healthy Nuclei (%) [7]: 66.57%
Population Pyknosed Nuclei (%) [7]: 7.27%
Population apoptotic cell (%) [7]: 80.00%
Population cell that influence microtubule strucutre (%) [7]: 3.06%
Population with increased mitochondrial mass (%) [7]: 2.62%
Population with membrane disruption (%) [7]: 3.93%
Cell count normalized to cells treated with DMSO control [8]: 1.07
Cell count per well [8]: 221
Population Fragmented Nuclei (%) [8]: 17.59%
Population Healthy Nuclei (%) [8]: 71.30%
Population Pyknosed Nuclei (%) [8]: 11.11%
Population apoptotic cell (%) [8]: 87.50%
Population cell that influence microtubule strucutre (%) [8]: 5.84%
Population with increased mitochondrial mass (%) [8]: 3.90%
Population with membrane disruption (%) [8]: 5.84%
Cell count normalized to cells treated with DMSO control [9]: 1.105
Cell count per well [9]: 230
Population Fragmented Nuclei (%) [9]: 38.01%
Population Healthy Nuclei (%) [9]: 52.49%
Population Pyknosed Nuclei (%) [9]: 9.50%
Population apoptotic cell (%) [9]: 85.71%
Population cell that influence microtubule strucutre (%) [9]: 0.86%
Population with increased mitochondrial mass (%) [9]: 0.86%
Population with membrane disruption (%) [9]: 3.45%
Cell count normalized to cells treated with DMSO control [10]: 0.875
Cell count per well [10]: 75
Population Fragmented Nuclei (%) [10]: 10.67%
Population Healthy Nuclei (%) [10]: 82.67%
Population Pyknosed Nuclei (%) [10]: 6.67%
Population apoptotic cell (%) [10]: 80.00%
Population cell that influence microtubule strucutre (%) [10]: 3.23%
Population with increased mitochondrial mass (%) [10]: 3.23%
Population with membrane disruption (%) [10]: 6.45%
Cell count normalized to cells treated with DMSO control [11]: 0.9149
Cell count per well [11]: 242
Population Fragmented Nuclei (%) [11]: 26.79%
Population Healthy Nuclei (%) [11]: 56.70%
Population Pyknosed Nuclei (%) [11]: 16.52%
Population apoptotic cell (%) [11]: 64.86%
Population cell that influence microtubule strucutre (%) [11]: 62.20%
Population with increased mitochondrial mass (%) [11]: 41.73%
Population with membrane disruption (%) [11]: 55.91%
Cell count normalized to cells treated with DMSO control [12]: 0.8031
Cell count per well [12]: 95
Population Fragmented Nuclei (%) [12]: 10.75%
Population Healthy Nuclei (%) [12]: 74.19%
Population Pyknosed Nuclei (%) [12]: 15.05%
Population apoptotic cell (%) [12]: 85.71%
Population cell that influence microtubule strucutre (%) [12]: 39.13%
Population with increased mitochondrial mass (%) [12]: 52.17%
Population with membrane disruption (%) [12]: 28.99%
Cell count normalized to cells treated with DMSO control [13]: 0.8277
Cell count per well [13]: 258
Population Fragmented Nuclei (%) [13]: 25.41%
Population Healthy Nuclei (%) [13]: 59.43%
Population Pyknosed Nuclei (%) [13]: 15.16%
Population apoptotic cell (%) [13]: 75.68%
Population cell that influence microtubule strucutre (%) [13]: 25.52%
Population with increased mitochondrial mass (%) [13]: 33.10%
Population with membrane disruption (%) [13]: 26.90%
Cell count normalized to cells treated with DMSO control [14]: 0.7946
Cell count per well [14]: 113
Population Fragmented Nuclei (%) [14]: 10.81%
Population Healthy Nuclei (%) [14]: 73.87%
Population Pyknosed Nuclei (%) [14]: 15.32%
Population apoptotic cell (%) [14]: 70.59%
Population cell that influence microtubule strucutre (%) [14]: 19.51%
Population with increased mitochondrial mass (%) [14]: 31.71%
Population with membrane disruption (%) [14]: 9.76%
Cell count normalized to cells treated with DMSO control [15]: 0.7572
Cell count per well [15]: 337
Population Fragmented Nuclei (%) [15]: 22.70%
Population Healthy Nuclei (%) [15]: 63.19%
Population Pyknosed Nuclei (%) [15]: 14.11%
Population apoptotic cell (%) [15]: 89.13%
Population cell that influence microtubule strucutre (%) [15]: 11.65%
Population with increased mitochondrial mass (%) [15]: 14.56%
Population with membrane disruption (%) [15]: 12.62%
Cell count normalized to cells treated with DMSO control [16]: 0.76
Cell count per well [16]: 157
Population Fragmented Nuclei (%) [16]: 10.00%
Population Healthy Nuclei (%) [16]: 69.33%
Population Pyknosed Nuclei (%) [16]: 20.67%
Population apoptotic cell (%) [16]: 87.10%
Population cell that influence microtubule strucutre (%) [16]: 14.42%
Population with increased mitochondrial mass (%) [16]: 14.42%
Population with membrane disruption (%) [16]: 11.54%
